Like-named read-outs stand apart in the source and are kept apart here.
Key:
[1] = test system: human leukemia HL-60 cells; set-up: method as in PMID 11507740; conditions: cited from earlier work
SKOV3 cells [2] = assay: MTT cytotoxicity assay, SKOV3; format: cell-based; conditions: Homo sapiens, read-out: IC50 (cytotoxicity)
SKOV3 cells [3] = assay: PI/Annexin V-FITC double staining, SKOV3; format: cell-based, human; conditions: SKOV3, 48 h, increased by up to
Method: (§1) Annexin V- FITC was obtained from BD Biosciences (San Jose, CA, USA). The cells were treated with (−)-asarinin (1) and incubated for 48 h. The cells were rinsed twice with ice-cold PBS and suspended with 100 μL of binding buffer (10 mM HEPES/NaOH, 140 mM Nacl, 2.5 mM CaCl2, PH 7.4). A total of 5 μL of FITC-conjugated annexin V and 5 μL of PI ([…]) were added into the cell suspension, and the mixture was incubated in a dark place at room temperature for 15 min. The cells were analyzed using FACS cater-plus flow cytometry (guava easy cyte^TM); at least 10,000 cells per each group were counted.

in vitro = conditions: human
Method: (§2) Human ovarian cancer cell lines (A2780 and SKOV3 cells) were obtained from the American Type Culture Collection (ATCC), and immortalized ovarian surface epithelial cell lines (IOSE80PC) were provided by Dr. N. Auersperg (University of British Columbia, Vancouver, British Columbia, Canada) and Dr. A. Godwin (Fox Chase Cancer Center, Philadelphia, PA, USA).
(§3) A MTT assay was performed to evaluate the cell viability. The MTT was obtained from Molecular Probes Inc. (Eugene, OR, USA). Briefly, the cells (1.0 × 10^5/well) were seeded in a 96-well plate and incubated for 24 h. […] MTT solution was added into each well (final concentration; 0.5 mg/mL) and the plates were incubated for an additional 4 h. The medium was removed and 50 μL of dimethyl sulfoxide (DMSO) was added. The optical density was measured at 540 nm using a microplate spectrophotometer (SpectraMax; Molecular Devices, Sunnyvale, CA, USA). To investigate the involvement of caspases in asarinin (1)-induced cell death, a MTT assay was also performed using caspase inhibitors. The cells were pretreated with caspase inhibitors (50 μM) for 30 min, and treated with (−)-asarinin (1) (A2780, 40 μM; and SKOV3, 60 μM) for 48 h. Caspase-3 inhibitor z-DEVD-fmk, caspase-8 inhibitor z-IETD-fmk, and caspase-9 inhibitor z-LEHD-fmk were purchased from Calbiochem (Bad Soden, Germany).

IOSE80PC cells = assay: in vitro
Method: as §2, §3

A2780 cells [4] = assay: MTT cytotoxicity assay, A2780; format: cell-based; conditions: Homo sapiens, read-out: IC50 (cytotoxicity)
EBV-EA activation = test system: EBV-EA activation; set-up: method as in PMID 9255419, doi:10.1016/S1572-5995(00)80047-2; conditions: Raji cells; cited from earlier work
caspase-3 [5] = assay: Western blot caspase activation, A2780; format: cell-based, human; conditions: A2780, 48 h, procaspase level by Western blot
Method: (§4) The cells were treated with (−)-asarinin (1) and incubated for 48 h. The cells were rinsed twice with ice-cold PBS and lysed with protein lysis buffer (Intron Biotechnology, Seoul, Korea) containing protease inhibitors (0.5 mM PMSF and 5 μg/mL aprotinin). The lysates were mixed with 5X sodium dodecyl sulfate (SDS) sample buffer and boiled for 5 min for denaturation. Total protein was run on 10–12% SDS-PAGE gels and electrotransferred onto a polyvinylidene difluoride (PVDF) membrane. The membrane was immunoblotted using specific primary antibodies overnight at 4 °C following blocking with 5% non-fat dry milk for 30 min–1 h. After washing, the membrane was incubated with horseradish peroxidase-conjugated secondary antibody (1:1000–2000) at room temperature for 1−2 h. After washing, immunepositive bands were visualized using an ECL chemiluminescent system and analyzed by Image Quant LAS-4000 (Fujifilm Life science, Tokyo, Japan). Anti-caspase-3 and b-actin antibodies were obtained from Santa Cruz Biotechnology (Santa Cruz, CA, USA). Caspase-9 antibody was purchased from Cell Signaling (Beverly, MA, USA). Caspase-8 antibody was obtained from BD Biosciences (San Jose, CA, USA).

caspase-9 [6] = assay: Western blot caspase activation, A2780; format: cell-based, human; conditions: A2780, 48 h, procaspase level by Western blot
Method: as §4

caspase-8 [7] = assay: Western blot caspase activation, A2780; format: cell-based, human; conditions: A2780, 48 h, procaspase level by Western blot
Method: as §4

caspase-3 [8] = assay: Western blot caspase activation, SKOV3; format: cell-based, human; conditions: SKOV3, 48 h, procaspase level by Western blot
Method: as §4

caspase-9 [9] = assay: Western blot caspase activation, SKOV3; format: cell-based, human; conditions: SKOV3, 48 h, procaspase level by Western blot
Method: as §4

caspase-8 [10] = assay: Western blot caspase activation, SKOV3; format: cell-based, human; conditions: SKOV3, 48 h, procaspase level by Western blot
Method: as §4

A2780 cells [11] = assay: Cell cycle analysis (PI staining, flow cytometry), A2780; format: cell-based, human; conditions: A2780, 48 h
Method: (§5) The cells were treated with (−)-asarinin (1) and incubated for 48 h. At the time of collection, the cells were harvested and washed twice with ice-cold phosphate buffered saline (PBS). The cells were fixed and permeabilized with 70% ice-cold ethanol at −20 °C for 4 h. The cells were washed once with PBS and resuspended in a staining solution containing propidium iodide (50 µg/mL) and RNase A (5 mg/mL). The cell suspensions were incubated for 30 min at room temperature in a dark place. After 30 min the suspensions were analyzed by fluorescence-activated cell sorting (FACS) cater-plus flow cytometry (guava easy cyte^TM, Merk Millipore, Darmstadt, Germany) using 5000 cells per group.

A2780 cells [12] = assay: PI/Annexin V-FITC double staining, A2780; format: cell-based, human; conditions: A2780, 48 h, increased by up to
Method: as §1

SKOV3 cells [13] = assay: Cell cycle analysis (PI staining, flow cytometry), SKOV3; format: cell-based, human; conditions: SKOV3, 48 h
Method: as §5

A2780 cells [14] = assay: MTT assay with caspase inhibitors on (−)-asarinin (1)-induced cell death, A2780; format: cell-based, human; conditions: A2780, inhibitor 50 μM pretreated 30 min, then (−)-asarinin (1) 40 μM 48 h
SKOV3 cells [15] = assay: MTT assay with caspase inhibitors on (−)-asarinin (1)-induced cell death, SKOV3; format: cell-based, human; conditions: SKOV3, inhibitor 50 μM pretreated 30 min, then (−)-asarinin (1) 60 μM 48 h
[16] = IOSE80PC immortalized ovarian surface epithelial cells

Compound | IC50 (SKOV3 cells [2]; SK-OV-3, 48 h) | IC50 at 48 h (in vitro) | IC50 (A2780 cells [4]; A2780, 48 h) | IC50 (SKOV3 cells [2]; SK-OV-3, SKOV3, MTT, 48 h) | IC50 at 48 h (in vitro; [16]) | IC50 (A2780 cells [4]; A2780, MTT, 48 h) | effect on (−)-asarinin (1)-induced cell death (A2780 cells [14]) | effect on (−)-asarinin (1)-induced cell death (SKOV3 cells [15]) | other results
c1cc2c(cc1[C@H]1OC[C@H]3[C@@H]1CO[C@H]3c1ccc3c(c1)OCO3)OCO2 [Compound 1, (−)-asarinin] | 60.9 ± 5.01 µM | > 200 µM | 38.5 ± 2.78 µM | – | – | – | – | – | DNA synthesis [1]: inhibited DNA synthesis; percentage of Annexin V-FITC positive/PI negative cells (SKOV3 cells [3]): ≤ 48%; cytotoxicity (in words) (IOSE80PC cells): did not show any cytotoxicity; effect on EBV-EA activation (EBV-EA activation): significant inhibitory effect; activation of caspase-3 (caspase-3 [5]): markedly stimulated the activation; activation of caspase-9 (caspase-9 [6]): markedly stimulated the activation; activation of caspase-8 (caspase-8 [7]): markedly stimulated the activation; activation of caspase-3 (caspase-3 [8]): markedly stimulated the activation; activation of caspase-9 (caspase-9 [9]): markedly stimulated the activation; activation of caspase-8 (caspase-8 [10]): markedly stimulated the activation; cell cycle arrest (A2780 cells [11]): failed to induce cell cycle arrest; percentage of Annexin V-FITC positive/PI negative cells (A2780 cells [12]): up to 43%; cell cycle arrest (SKOV3 cells [13]): failed to induce cell cycle arrest
COc1cc([C@@H]2OC[C@@H]3[C@H]2CO[C@H]3c2ccc3c(c2)OCO3)ccc1O [Compound 2, (−)-pluviatilol] | – | – | – | 174 ± 9.42 µM | 179 ± 3.3 µM | 102 ± 13.6 µM | – | – | –
CCC(=O)c1cc2c(cc1O)OCO2 [Compound 3, kakuol] | > 200 µM | > 200 µM | > 200 µM | – | – | – | – | – | –
CCC(=O)c1cc2c(cc1OC)OCO2 [Compound 4, methylkakuol] | > 200 µM | > 200 µM | > 200 µM | – | – | – | – | – | –
C/C=C\CC/C=C/C=C/C(=O)NCC(C)C [Compound 7, (2E,4E,8Z)-N-isobutyldeca-2,4,8-trienamide] | – | – | – | > 200 µM | > 200 µM | > 200 µM | – | – | –
C/C=C/C=C\CC/C=C/C=C/C(=O)NCC(C)C [Compound 8, (2E,4E,8Z,10E/Z)-N-isobutyldodeca-2,4,8,10-tetraenamide] | – | – | – | > 200 µM | > 200 µM | 101 ± 10.3 µM | – | – | –
z-DEVD-fmk | – | – | – | – | – | – | considerably attenuated | considerably attenuated | –
z-IETD-fmk | – | – | – | – | – | – | considerably attenuated | considerably attenuated | –
z-LEHD-fmk | – | – | – | – | – | – | considerably attenuated | considerably attenuated | –
